Test results as given in patent EP0066351A1, “Arylethanol amine derivatives, their preparation and use in pharmaceutical compositions” (priority 1981, dated 1982).
Counter-ions that a name gives are not always drawn. Like-named read-outs stand apart in the source and are kept apart here.

Key:
Female CFLP mice [1] = test: Effect on energy expenditure and food intake of mice; format: in vivo; conditions: Mus musculus; for response vs control in vivo at 25.5 mg/kg / response vs control in vivo at 23.8 mg/kg / response vs control in vivo at 18.8 mg/kg / response vs control in vivo at 21.3 mg/kg / response vs control in vivo at 20.7 mg/kg / response vs control in vivo at 19.6 mg/kg / response vs control in vivo at 25.6 mg/kg / response vs control in vivo at 20.8 mg/kg / response vs control in vivo at 26.7 mg/kg / response vs control in vivo at 23.6 mg/kg / response vs control in vivo at 21.2 mg/kg: po, 21 h; for response vs control in vivo at 18.9 mg/kg: dose 18.9 mg/kg po, mice, 21 hours after dosing, percentage of mice dosed with water
Description: Female CFLP mice each weighing approximately 24 g, were given food and water ad lib before and during the experiment. The compounds were dissolved in water by addition of one mole of hydrochloric acid per mole of compound and these solutions were administered orally to each of 12 mice. A further 12 mice were dosed orally with water. The mice were placed in boxes through which air was drawn and the oxygen content of the air leaving the boxes was measured. The energy expenditure of the mice was calculated for 21 hours after dosing from the volume of air leaving the boxes and its oxygen content following the principles described by J B de V Weir, J Physiol (London) 109, 1-9, (1949). The food intake of the mice was measured over this same period of 21 hours. The results are expressed as a percentage of the mean food intake or rate of energy expenditure of the mice dosed with water.

Female CFLP mice [2] = test: Hypoglycaemic activity: blood glucose after subcutaneous glucose load in fasted mice; format: in vivo; conditions: glucose 1 g/kg s.c. 30 minutes after dosing, area over 2 hours vs water controls
Description: Female CFLP mice, each weighing approximately 25 g, were fasted for 24 hours prior to the study. The compounds under study were administered orally as an aqueous solution to each of 7 mice. 7 mice were given water as a control. 30 minutes later a blood sample (20 µl) was obtained from the tail for the analysis of blood glucose. Immediately after taking this blood sample, glucose (1 g/kg body weight) was administered subcutaneously to each mouse. Blood samples were then obtained from each mouse at 30 minute intervals for 120 minutes.
Compounds that produced a significant (P<0.05) reduction of blood glucose, compared with control mice given water, at any time interval, were considered active. The area under the blood glucose curve over the 2 hour period after the administration of the glucose was calculated for each compound and compared with the value for control animals.

Rat hearts = test: Cardiac activity: rat hearts perfused by the Langendorff procedure
Description: Rat hearts were perfused by the Langendorff procedure as follows: • Hearts were dissected free within 30 seconds of death and reverse perfused via the aorta and coronary vessels with Krebs-Ringer bicarbonate solution (pH 7.4, 37 °C) gassed with 95% oxygen:5% carbon dioxide at a flow rate between 8-12 cm^3/minute. Responses were observed after injection of drug dissolved in isotonic saline into the perfusion media.
Results are expressed as a percentage of the maximum response due to salbutamol.

platelets = test: Collagen-induced platelet aggregation in human whole blood in vitro; format: cell-based; conditions: collagen EC50 in presence of compound divided by control EC50, 3 mins preincubation
Description: Collagen-induced platelet aggregation in human whole blood in vitro.
Collagen added to stirred citrated blood causes platelet aggregation. As the platelets aggregate, the concentration of single platelets falls. […] Inhibitors of aggregation, such as aspirin and dipyridamole, reduce the response to collagen.
Blood drawn from volunteers who denied taking aspirin within the previous seven days was mixed with 0.1 vol 129 mM trisodium citrate, dispensed into 0.5 ml aliquots and kept at 25°. Collagen (Hormon-Chemie, Munich) or 154 mM NaCl (control) was added to each aliquot of blood stirred at 1100 rpm in an aggregometer at 37° after 3 mins preincubation with compound or appropriate solvent. Aggregates were fixed by addition of 0.5 vol 4.5% formaldehyde or 0.05 vol phosphate-buffered glutaraldehyde. Single platelets were counted electronically. Responses, expressed as per cent fall in platelet count, were obtained to a range of collagen concentrations. The concentration producing a 50% maximal effect (EC50) was estimated from log10 concentration-response curves. Dose-ratios were calculated by dividing the EC50 obtained in the presence of compound under test by the control EC50.

rat ear = test: Topical anti-inflammatory activity: croton oil induced inflammation in the rat ear; format: in vivo; conditions: dose 1.0 mg/rat ear, topical in 1% croton oil in tetrahydrofuran; ear weight after 6 hours; active = significant (5% level) reduction vs non-drug treated control
Description: The method used is based on that described by G. Tonelli et al (Endocrinology, 77, 625-634, 1965). An inflammation is induced in the rat ear by the application of 50 µl of a 1% solution of croton oil in tetrahydrofuran, test compounds being dissolved in the irritant vehicle. After 6 hours the inflammation is assessed by killing the animals and weighing the ears. Topical anti-inflammatory activity of a compound is generally considered to be shown when a significant (5% level) reduction in ear weight is seen compared to non-drug treated control.

[3] = read-out: Mean Energy Expenditure (%)
[4] = Rattus norvegicus, read-out: Heart Rate
[5] = Rattus norvegicus, read-out: Heart Tension
[6] = final concentration in whole blood 200 µM
[7] = 10 μg added to perfusate, percentage of the maximum response due to salbutamol, perfused rat heart, read-out: Heart Rate
[8] = 10 μg added to perfusate, percentage of the maximum response due to salbutamol, perfused rat heart, read-out: Heart Tension
[9] = final concentration in whole blood 300 µM

For `COc1ccc(C[C@@H](C)NC[C@H](O)c2cccc(C(F)(F)F)c2)cc1F` (racemic) [Example 9, N-[2-(3-Fluoro-4-methoxyphenyl)-1-methylethyl]-2-hydroxy-2-(3-trifluoromethylphenyl)ethanamine hydrobromide-(RR,SS) diastereoisomer], the response vs control in vivo at 25.5 mg/kg (Female CFLP mice [1]; [3]) was 115%, the response vs control in vivo at 25.5 mg/kg (Female CFLP mice [1]; read-out: Mean Food Intake (%)) was 78% and the “Reduction in area under Blood glucose curve (%)” value (“Reduction in area … (%)” for short) (Female CFLP mice [2]; dose 2.5 μ moles/kg po) was 18%. It also gave an Emax at 0.01 mg (Rat hearts; [4]) of 16% and an Emax at 0.01 mg (Rat hearts; [5]) of 4%.

In the case of `CC(=O)Oc1ccccc1C(=O)O` [Aspirin, reference compound], the Dose-ratio (platelets; [6]) is reported as 2.4 ± 0.3(3).

`OCCN(CCO)c1nc(N2CCCCC2)c2nc(N(CCO)CCO)nc(N3CCCCC3)c2n1` [Dipyridamole, reference compound] was tested, and the Dose-ratio (platelets; [6]) was 3.7 ± 1.1(4).

In the case of `CC(Cc1ccc(OCc2ccccc2)cc1)NCC(O)c1cccc(C(F)(F)F)c1` (stereo not shown) [Example 1, N-[2-(4-Benzyloxyphenyl)-1-methylethyl]-2-hydroxy-2-(3-trifluoromethylphenyl)ethanamine], the response vs control in vivo at 23.8 mg/kg (Female CFLP mice [1]; [3]) is reported as 115%, the response vs control in vivo at 23.8 mg/kg (Female CFLP mice [1]; read-out: Mean Food Intake (%)) is reported as 100% and the “Reduction in area … (%)” value (Female CFLP mice [2]; dose 12.5 μ moles/kg po) is reported as 36%. The Emax at 0.01 mg (Rat hearts; [7]) was 0% and the Emax at 0.01 mg (Rat hearts; [8]) was 7%.

For `CC(Cc1ccc(O)cc1)NCC(O)c1cccc(C(F)(F)F)c1` (stereo not shown) [Example 2, N-[2-(4-Hydroxyphenyl)-1-methylethyl]-2-hydroxy-2-(3-trifluoromethylphenyl)ethanamine], the Activity (rat ear) was “Active”, the response vs control in vivo at 18.8 mg/kg (Female CFLP mice [1]; [3]) was 126% and the response vs control in vivo at 18.8 mg/kg (Female CFLP mice [1]; read-out: Mean Food Intake (%)) was 90%. For the same compound, the Dose-ratio (platelets; [9]) was 2.2, the “Reduction in area … (%)” value (Female CFLP mice [2]; dose 12.5 μ moles/kg po) was 59% and the Emax at 0.01 mg (Rat hearts; [4]) was 73%. It also gave an Emax at 0.01 mg (Rat hearts; [5]) of 64%.

For `COc1ccc(CC(C)NCC(O)c2cccc(C(F)(F)F)c2)cc1OC` (stereo not shown) [Example 3, N-[2-(3,4-Dimethoxyphenyl)-1-methylethyl]-2-hydroxy-2-(3-trifluoromethylphenyl)ethanamine], the Activity (rat ear) was “Active”, the response vs control in vivo at 21.3 mg/kg (Female CFLP mice [1]; [3]) was 109% and the response vs control in vivo at 21.3 mg/kg (Female CFLP mice [1]; read-out: Mean Food Intake (%)) was 100%. For the same compound, the “Reduction in area … (%)” value (Female CFLP mice [2]; dose 12.5 μ moles/kg po) was 43%, the Emax at 0.01 mg (Rat hearts; [7]) was 14% and the Emax at 0.01 mg (Rat hearts; [8]) was 33%.

`COc1ccc(CC(C)NCC(O)c2cccc(C(F)(F)F)c2)cc1F` (stereo not shown) [Example 4, N-[2-(3-Fluoro-4-methoxyphenyl)-1-methylethyl]-2-hydroxy-2 (3-trifluoromethylphenyl)ethanamine] was tested, and the response vs control in vivo at 20.7 mg/kg (Female CFLP mice [1]; [3]) was 113%, the response vs control in vivo at 20.7 mg/kg (Female CFLP mice [1]; read-out: Mean Food Intake (%)) was 86% and the Dose-ratio (platelets; [9]) was 2.3. For the same compound, the “Reduction in area … (%)” value (Female CFLP mice [2]; dose 1.0 μ moles/kg po) was 28%, the Emax at 0.01 mg (Rat hearts; [4]) was 0% and the Emax at 0.01 mg (Rat hearts; [5]) was 5%.

`COc1ccc(CC(C)NCC(O)c2cccc(C(F)(F)F)c2)cc1` (stereo not shown) [Example 5, N-[2-(4-Methoxyphenyl)-1-methylethyl]-2-hydroxy-2-(3-trifluoromethylphenyl) ethanamine] was tested, and the response vs control in vivo at 19.6 mg/kg (Female CFLP mice [1]; [3]) was 119%, the response vs control in vivo at 19.6 mg/kg (Female CFLP mice [1]; read-out: Mean Food Intake (%)) was 88% and the “Reduction in area … (%)” value (Female CFLP mice [2]; dose 1.0 μ moles/kg po) was 27%. It also gave an Emax at 0.01 mg (Rat hearts; [4]) of 0% and an Emax at 0.01 mg (Rat hearts; [5]) of 8%.

Work on `COc1cc(CC(C)NCC(O)c2cccc(C(F)(F)F)c2)ccc1OCc1ccccc1` (stereo not shown) [Example 6, N-[2-(4-Benzyloxy-3-methoxyphenyl)-1-methylethyl]-2-hydroxy-2-(3-trifluoromethylphenyl)ethanamine] yielded a response vs control in vivo at 25.6 mg/kg (Female CFLP mice [1]; [3]) of 114%, a response vs control in vivo at 25.6 mg/kg (Female CFLP mice [1]; read-out: Mean Food Intake (%)) of 75% and an Emax at 0.01 mg (Rat hearts; [7]) of 6%. It also gave an Emax at 0.01 mg (Rat hearts; [8]) of 25%.

`CC(Cc1ccc(OCc2ccccc2)c(Cl)c1)NCC(O)c1cccc(C(F)(F)F)c1` (stereo not shown) [Example 7, N-[2-(4-Benzyloxy-3-chlorophenyl)-1-methylethyl]-2-hydroxy-2-(3-trifluoromethylphenyl)ethanamine] was tested, and the “Reduction in area … (%)” value (Female CFLP mice [2]; dose 12.5 μ moles/kg po) was 28%, the Emax at 0.01 mg (Rat hearts; [7]) was 0% and the Emax at 0.01 mg (Rat hearts; [8]) was 0%.

`CC(Cc1ccc(O)c(Cl)c1)NCC(O)c1cccc(C(F)(F)F)c1` (stereo not shown) [Example 8, N-[2-(3-Chloro-4-hydroxyphenyl)-1-methylethyl]-2-hydroxy-2-(3-trifluoromethylphenyl)ethanamine] was tested, and the response vs control in vivo at 20.8 mg/kg (Female CFLP mice [1]; [3]) was 118%, the response vs control in vivo at 20.8 mg/kg (Female CFLP mice [1]; read-out: Mean Food Intake (%)) was 88% and the “Reduction in area … (%)” value (Female CFLP mice [2]; dose 2.5 μ moles/kg po) was 11%. The Emax at 0.01 mg (Rat hearts; [4]) was 23% and the Emax at 0.01 mg (Rat hearts; [5]) was 8%.

`CCCCCCCCCCOc1ccc(CC(C)NCC(O)c2cccc(C(F)(F)F)c2)cc1` (stereo not shown) [Example 10, N-[2-(4-^nDecyloxyphenyl)-1-methylethyl)-2-hydroxy-2-(3-trifluoromethylphenyl) ethanamine] was tested, and the response vs control in vivo at 26.7 mg/kg (Female CFLP mice [1]; [3]) was 118%, the response vs control in vivo at 26.7 mg/kg (Female CFLP mice [1]; read-out: Mean Food Intake (%)) was 89% and the “Reduction in area … (%)” value (Female CFLP mice [2]; dose 5.0 μ moles/kg po) was 48%.

In the case of `CCCCCOc1ccc(CC(C)NCC(O)c2cccc(C(F)(F)F)c2)cc1` (stereo not shown) [Example 11, N-[2-(4-^nPentyloxyphenyl)-1-methylethyl]-2-hydroxy-2-(3-trifluoromethylphenyl) ethanamine], the response vs control in vivo at 23.6 mg/kg (Female CFLP mice [1]; [3]) is reported as 118%, the response vs control in vivo at 23.6 mg/kg (Female CFLP mice [1]; read-out: Mean Food Intake (%)) is reported as 106% and the “Reduction in area … (%)” value (Female CFLP mice [2]; dose 2.5 μ moles/kg po) is reported as 47%.

In the case of `CC(Cc1ccc(OC(C)C)cc1)NCC(O)c1cccc(C(F)(F)F)c1` (stereo not shown) [Example 12, N-(2-(4-Isopropoxyphenyl)-1-methylethyl]-2-hydroxy-2-(3-trifluoromethylphenyl) ethanamine], the response vs control in vivo at 21.2 mg/kg (Female CFLP mice [1]; [3]) is reported as 122%, the response vs control in vivo at 21.2 mg/kg (Female CFLP mice [1]; read-out: Mean Food Intake (%)) is reported as 94% and the “Reduction in area … (%)” value (Female CFLP mice [2]; dose 2.5 μ moles/kg po) is reported as 52%.

`COc1ccc(CCNCC(O)c2cccc(C(F)(F)F)c2)cc1` (stereo not shown) [Example 13, N-[2-(4-Methoxyphenyl)ethyl]-2-hydroxy-2-(3-trifluoromethylphenyl) ethanamine] was tested, and the response vs control in vivo at 18.9 mg/kg (Female CFLP mice [1]; [3]) was 112%, the response vs control in vivo at 18.9 mg/kg (Female CFLP mice [1]; read-out: Mean Food Intake (%)) was 104% and the “Reduction in area … (%)” value (Female CFLP mice [2]; dose 5.0 μ moles/kg po) was 27%.

For `COc1ccc(CCC(C)(C)NCC(O)c2cccc(C(F)(F)F)c2)cc1` (stereo not shown) [Example 14, N-[3-(4-Methoxyphenyl)-1,1-dimethylpropyl]-2-hydroxy-2-(3-trifluoromethylphenyl) ethanamine], the “Reduction in area … (%)” value (Female CFLP mice [2]; dose 100 μ moles/kg po) was 34%.
